These compounds were tested against MAPK14 (UniProt Q16539) (assay: Inhibition of MAPK14 Kinase Activity).
Chain of MAPK14 (Q16539 whole entry, looked up): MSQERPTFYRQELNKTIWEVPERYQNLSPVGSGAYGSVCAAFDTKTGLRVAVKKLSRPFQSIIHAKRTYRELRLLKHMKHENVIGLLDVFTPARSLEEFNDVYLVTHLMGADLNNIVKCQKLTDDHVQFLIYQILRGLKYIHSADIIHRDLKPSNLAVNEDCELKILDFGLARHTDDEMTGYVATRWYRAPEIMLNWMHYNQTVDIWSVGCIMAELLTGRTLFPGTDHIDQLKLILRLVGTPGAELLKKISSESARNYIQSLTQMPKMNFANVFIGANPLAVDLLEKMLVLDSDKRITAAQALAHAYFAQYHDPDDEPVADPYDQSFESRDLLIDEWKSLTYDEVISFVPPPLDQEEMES

IC50, < 10 µM:
Cc1c(F)cc(C(=O)NC2CC2)cc1-c1ccc(C(=O)N[C@H](C)C(C)(C)C)cc1O, Cc1c(F)cc(C(=O)NC2CC2)cc1-c1ccc(C(=O)NCC2CC2)cc1O, Cc1c(F)cc(C(=O)NC2CC2)cc1-c1ccc(C(=O)NCC(C)(C)C)cc1OCCCC(=O)N1CCCC1, Cc1ccc(C(=O)NC2CC2)cc1-c1ccc(C(=O)NCC(C)(C)C)cc1OCCCNC(C)C, Cc1ccc(CNC(=O)c2ccc(-c3cc(C(=O)NC4CC4)cc(F)c3C)c(O)c2)cc1, COc1ccc(CNC(=O)c2ccc(-c3cc(C(=O)NC4CC4)cc(F)c3C)c(O)c2)cc1, CNC(=O)CCCOc1cc(C(=O)NCC(C)(C)C)ccc1-c1cc(C(=O)NC2CC2)cc(F)c1C, Cc1ccc(C(=O)NC2CC2)cc1-c1ccc(C(=O)NCC(C)(C)C)cc1NS(C)(=O)=O, Cc1c(F)cc(C(=O)NC2CC2)cc1-c1ccc(C(=O)NCC(C)(C)C)cc1OCCCCO, Cc1c(F)cc(C(=O)NC2CC2)cc1-c1ccc(C(=O)NCC(C)(C)C)cc1OCCCC(=O)N1CCOCC1, Cc1c(F)cc(C(=O)NC2CC2)cc1-c1ccc(C(=O)NCC(C)(C)C)cc1CNCC(C)(C)C, Cc1c(F)cc(C(=O)NC2CC2)cc1-c1ccc(C(=O)NCC(C)(C)C)cc1OCCCN(C)C, Cc1ccc(C(=O)NC2CC2)cc1-c1ccc(C(=O)NCC(C)(C)C)cc1OCCCN(C)C(C)C, COCOc1cc(C(=O)N[C@H](C)C(C)(C)C)ccc1-c1cc(C(=O)NC2CC2)cc(F)c1C, COc1cc(C(=O)N[C@H](C)C(C)C)ccc1-c1cc(C(=O)NC2CC2)cc(F)c1C, Cc1c(F)cc(C(=O)NC2CC2)cc1-c1ccc(C(=O)NCC(C)C)cc1O, Cc1ccc(C(=O)NC2CC2)cc1-c1ccc(C(=O)NCC(C)(C)C)cc1OCCCN1CCCC1, COc1cc(C(=O)NCC2CC2)ccc1-c1cc(C(=O)NC2CC2)cc(F)c1C, Cc1c(F)cc(C(=O)NC2CC2)cc1-c1ccc(C(=O)NCC(C)(C)C)cc1OCC(=O)N1CCOCC1, CCN(CC)CCCOc1cc(C(=O)NCC(C)(C)C)ccc1-c1cc(C(=O)NC2CC2)ccc1C, COCOc1cc(C(=O)NCC(C)(C)C)ccc1-c1cc(C(=O)NC2CC2)cc(F)c1C, COCOc1cc(C(=O)N[C@H](C)C(C)C)ccc1-c1cc(C(=O)NC2CC2)cc(F)c1C, Cc1c(F)cc(C(=O)NC2CC2)cc1-c1ccc(C(=O)NCC(C)(C)C)cc1OCCCC(=O)N(C)C, Cc1ccc(C(=O)NC2CC2)cc1-c1ccc(C(=O)NCC(C)(C)C)cc1N, Cc1ccc(C(=O)NC2CC2)cc1-c1ccc(C(=O)NCC(C)(C)C)cc1OCC(O)CO (stereo not drawn), CCC(=O)Nc1cc(C(=O)NCC(C)(C)C)ccc1-c1cc(C(=O)NC2CC2)ccc1C, Cc1c(F)cc(C(=O)NC2CC2)cc1-c1ccc(C(=O)NCC(C)(C)C)cc1OCCCC(N)=O, Cc1ccc(C(=O)NC2CC2)cc1-c1ccc(C(=O)NCC(C)(C)C)cc1OCCCN1CCOCC1, COCOc1cc(C(=O)NCC2CC2)ccc1-c1cc(C(=O)NC2CC2)cc(F)c1C, Cc1c(F)cc(C(=O)NC2CC2)cc1-c1ccc(C(=O)NCC(C)(C)C)cc1OCCNS(C)(=O)=O, CCNC(=O)CCCOc1cc(C(=O)NCC(C)(C)C)ccc1-c1cc(C(=O)NC2CC2)cc(F)c1C, Cc1c(F)cc(C(=O)NC2CC2)cc1-c1ccc(C(=O)NCC(C)(C)C)cc1OCCCC(=O)O, Cc1c(F)cc(C(=O)NC2CC2)cc1-c1ccc(C(=O)N[C@H](C)C(C)C)cc1O, Cc1ccc(C(=O)NC2CC2)cc1-c1ccc(C(=O)NCC(C)(C)C)cc1OCCCNCCO, Cc1c(F)cc(C(=O)NC2CC2)cc1-c1ccc(C(=O)NCC2CC2)cc1OCCN(C)C, COc1cc(C(=O)NCC(C)C)ccc1-c1cc(C(=O)NC2CC2)cc(F)c1C, COc1ccc(CNC(=O)c2ccc(-c3cc(C(=O)NC4CC4)cc(F)c3C)c(OC)c2)cc1, Cc1c(F)cc(C(=O)NC2CC2)cc1-c1ccc(C(=O)NCC(C)(C)C)cc1O, COCOc1cc(C(=O)NCc2ccc(OC)cc2)ccc1-c1cc(C(=O)NC2CC2)cc(F)c1C, COCOc1cc(C(=O)NCC(C)C)ccc1-c1cc(C(=O)NC2CC2)cc(F)c1C, Cc1c(F)cc(C(=O)NC2CC2)cc1-c1ccc(C(=O)NCC(C)(C)C)cc1CO, COc1cc(C(=O)NCC(C)(C)C)ccc1-c1cc(C(=O)NC2CC2)cc(F)c1C, CCCOc1cc(C(=O)NCC(C)(C)C)ccc1-c1cc(C(=O)NC2CC2)cc(F)c1C, CCNC(=O)Nc1cc(C(=O)NCC(C)(C)C)ccc1-c1cc(C(=O)NC2CC2)ccc1C, CC(=O)Nc1cc(C(=O)NCC(C)(C)C)ccc1-c1cc(C(=O)NC2CC2)ccc1C, COc1cc(C(=O)N[C@H](C)C(C)(C)C)ccc1-c1cc(C(=O)NC2CC2)cc(F)c1C, Cc1c(F)cc(C(=O)NC2CC2)cc1-c1ccc(C(=O)NCC(C)(C)C)cc1OCCCc1nnco1, Cc1c(F)cc(C(=O)NC2CC2)cc1-c1ccc(C(=O)NCC(C)(C)C)cc1OCCN1CCOCC1

From the Kinase Knowledgebase extract (Sharma et al. 2016)
